Measured values taken from patent publication US20240116998A1, “GLUCAGON-LIKE PEPTIDE-1 RECEPTOR ANTAGONISTS” (INDIANA UNIVERSITY RESEARCH AND TECHNOLOGY CORPORATION, priority 2021, published 2024).
pIC50: −log10 of the molar value. Converted amounts (≈) assume the structure as drawn. Starred links: 1 amine or outer side, 2 acyl side, 3 side chain; linkers in the order of their positions; H or OH if unused. Non-standard residues stand in square brackets, D forms with d. Residues, ends and D or L forms follow the SMILES beside them. Groups on a side chain read outwards from the residue. *: point of attachment. γGlu = O=C(O)[C@H](CCC(=O)[*:2])N[*:1]; Palmitoyl = CCCCCCCCCCCCCCCC(=O)*; AEEA = NCCOCCOCC(=O)O; Aib = CC(C)(N)C(=O)O

Tests used:
[1] = test system: C57B1/6 mice; assay: Glucose tolerance test after subcutaneous GLP-1 antagonist (acute in vivo study); conditions: s.c. antagonist, i.p. glucose 1.5 g/kg four hours later
Method: FIGS. 2A & 2B present data from a glucose tolerance test wherein mice are subcutaneously administered the GLP-1 antagonist followed four hours later by intraperitoneal administration of glucose (1.5 g glucose per kg body weight).
C57B1/6 mice were obtained from Jackson Laboratories. Mice were single- or group-housed on a 12:12 h light-dark cycle at 22° C. with free access to food and water. All studies were approved by and performed according to the guidelines of the Institutional Animal Care and Use Committee of the University of Cincinnati.
For the determination of glucose tolerance, mice were subjected to 6 h of fasting and injected intraperitoneally with glucose. Injections consisted of 1.5 g glucose per kg body weight (25% w/v D-glucose (Sigma) in 0.9% w/v saline). Tail blood glucose levels (mg dL-1) were measured using a hand-held glucometer (FreeStyle Freedom Lite) before 0 min and at 15, 30, 60, and 120 min after injection.
Mice received a subcutaneous injection of peptide (in PBS) either 1, 4, 8, 24, 48, 72, or 120 at varying doses before being challenged with an IP injection of dipeptidyl peptidase-IV-protected Ex-4 (0.65 nmol kg−1). A GTT was performed fifteen minutes after the GLP-1 injection. Tail blood glucose values were obtained as described above.

[2] = target: T1, human GLP-1 receptor (Homo sapiens, UniProt P43220); assay: GLP-1 receptor-mediated cAMP induction, luciferase reporter gene assay (antagonism mode); type: cell-based; conditions: Table 2; HEK 293 cells, human GLP-1R, vs 0.05 nM GLP-1; read-out: Bioactivity IC50
T1 construct: host or cells: HEK 293
T1 sequence (P43220 24-463): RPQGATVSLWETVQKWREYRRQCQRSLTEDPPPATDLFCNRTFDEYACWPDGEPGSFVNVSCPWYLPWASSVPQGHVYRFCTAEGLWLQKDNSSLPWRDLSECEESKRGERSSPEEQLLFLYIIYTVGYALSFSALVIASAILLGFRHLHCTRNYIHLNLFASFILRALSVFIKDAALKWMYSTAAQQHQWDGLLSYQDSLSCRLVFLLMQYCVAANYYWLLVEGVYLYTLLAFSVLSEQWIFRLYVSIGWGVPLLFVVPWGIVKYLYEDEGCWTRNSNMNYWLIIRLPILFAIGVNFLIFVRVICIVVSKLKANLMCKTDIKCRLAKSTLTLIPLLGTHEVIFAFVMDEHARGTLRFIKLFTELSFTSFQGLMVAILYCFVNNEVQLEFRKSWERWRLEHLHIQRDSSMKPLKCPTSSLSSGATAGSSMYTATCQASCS
Method: GLP-1 Receptor-Mediated cAMP Induction
The ability of peptides to stimulate or block cAMP induction at the GLP-1 receptor was examined by a luciferase-based reporter gene assay. Cotransfection of HEK 293 cells with the human GLP-1 receptor (Open Biosystems) and a cAMPinducible (cAMPresponsive element) luciferase gene constituted the cellular construct where receptor activation could be measured. Bioassays were performed by first serum depriving the cells for 16 h in 0.25% bovine growth serum (HyClone)-supplemented Dulbecco's modified Eagle's medium (Invitrogen) and then adding serial dilutions of the peptides over the appropriate concentration ranges in 96-well poly-D-lysine-coated plates (BD Biosciences). For antagonism assays, a constant concentration of GLP-1 (0.05 nM) was added to the assay plate after the diluted peptides. Incubation continued for 5 h at 37° C., 5% CO2 and was followed by the addition of an equivalent volume (100 μL) of LucLite luminescence substrate reagent (Perkin-Elmer). MicroBeta 1450 liquid scintillation counting (Perkin-Elmer) quantified the luminescence signal in counts per second (cps) after shaking the plate at 600 rpm for 3 min. Data was plotted using Origin software (OriginLab) and the effective concentration 50 (EC50) or inhibitory concentration 50 (IC50) was determined by sigmoidal fitting. Potency was determined by comparative analysis of relative EC50 or IC50 values. Each experiment was repeated at least three times with each sample assayed in duplicate.

[3] = Solubility of peptides in buffer; type: physicochemical

Structure (SMILES)	pIC50 [2]	solubility ([3]; pH 7.7) [µg/mL]	solubility ([3]; pH 7.4) [µg/mL]	also measured
CCCCCCCCCCCCCCCC(=O)N[C@@H](CCC(=O)NCCOCCOCC(=O)NCCCC[C@H](NC(=O)[C@H](CO)NC(=O)[C@@H]1CCCN1C(=O)[C@@H]1CCCN1C(=O)[C@@H]1CCCN1C(=O)[C@H](C)NC(=O)CNC(=O)[C@H](CO)NC(=O)[C@H](CO)NC(=O)[C@@H]1CCCN1C(=O)CNC(=O)CNC(=O)[C@H](CCCNC(=N)N)NC(=O)[C@@H](NC(=O)[C@H](CC(C)C)NC(=O)[C@H](Cc1c[nH]c2ccccc12)NC(=O)[C@H](CCC(=O)O)NC(=O)[C@@H](NC(=O)[C@H](Cc1ccccc1)NC(=O)[C@H](CCC(=O)O)NC(=O)[C@H](CCCNC(=N)N)NC(=O)[C@@H](NC(=O)[C@H](C)NC(=O)[C@H](CCC(N)=O)NC(=O)[C@H](CCC(=O)O)NC(=O)[C@H](CCC(=O)O)NC(=O)[C@H](CC(C)C)NC(=O)[C@H](Cc1ccc(O)cc1)NC(=O)[C@H](CCCNC(=N)N)NC(=O)[C@H](CO)NC(=O)[C@@H](NC(=O)[C@@H](N)CC(=O)O)C(C)C)C(C)C)[C@@H](C)CC)C(C)C)C(=O)O)C(=O)O [SEQ ID NO: 16] (H-DVSRYLEEQAVREFIEWLVRGGPSSGAPPPSK([AEEA-γGlu-Palmitoyl])-OH)				GLP-1 antagonist activity in glucose tolerance test ([1]; FIG. 2A): full antagonist; Potency relative to the GLP-1 antagonist Ex-9-40 in glucose tolerance test ([1]; FIGS. 2A & 2B): much higher potency
CCCCCCCCCCCCCCCC(=O)N[C@@H](CCC(=O)N[C@@H](CCC(=O)NCCOCCOCC(=O)NCCOCCOCC(=O)NCCCC[C@H](NC(=O)[C@H](CO)NC(=O)[C@@H]1CCCN1C(=O)[C@@H]1CCCN1C(=O)[C@@H]1CCCN1C(=O)[C@H](C)NC(=O)CNC(=O)[C@H](CO)NC(=O)[C@H](CO)NC(=O)[C@@H]1CCCN1C(=O)CNC(=O)CNC(=O)[C@H](CCCCN)NC(=O)[C@@H](NC(=O)[C@H](CC(C)C)NC(=O)[C@H](Cc1c[nH]c2ccccc12)NC(=O)[C@H](C)NC(=O)[C@@H](NC(=O)[C@H](Cc1ccccc1)NC(=O)[C@H](CCC(=O)O)NC(=O)[C@H](CCCNC(=N)N)NC(=O)[C@@H](NC(=O)[C@H](C)NC(=O)[C@H](CCC(N)=O)NC(=O)[C@H](CCC(=O)O)NC(=O)[C@H](CCC(=O)O)NC(=O)[C@H](CC(C)C)NC(=O)[C@H](Cc1ccc(O)cc1)NC(=O)[C@H](CO)NC(=O)[C@H](CO)NC(=O)[C@@H](NC(=O)[C@@H](N)CC(=O)O)C(C)C)C(C)C)[C@@H](C)CC)C(C)C)C(N)=O)C(=O)O)C(=O)O [SEQ ID NO: 58] (H-DVSSYLEEQAVREFIAWLVKGGPSSGAPPPSK([AEEA-AEEA-γGlu-γGlu-Palmitoyl])-NH2; N-terminus assumed)	7.96			
CCCCCCCCCCCCCCCC(=O)N[C@@H](CCC(=O)NCCOCCOCC(=O)NCCOCCOCC(=O)N[C@@H](CCC(=O)NCCCC[C@H](NC(=O)[C@H](CO)NC(=O)[C@@H]1CCCN1C(=O)[C@@H]1CCCN1C(=O)[C@@H]1CCCN1C(=O)[C@H](C)NC(=O)CNC(=O)[C@H](CO)NC(=O)[C@H](CO)NC(=O)[C@@H]1CCCN1C(=O)CNC(=O)CNC(=O)[C@H](CCCCN)NC(=O)[C@@H](NC(=O)[C@H](CC(C)C)NC(=O)[C@H](Cc1c[nH]c2ccccc12)NC(=O)[C@H](C)NC(=O)[C@@H](NC(=O)[C@H](Cc1ccccc1)NC(=O)[C@H](CCC(=O)O)NC(=O)[C@H](CCCNC(=N)N)NC(=O)[C@@H](NC(=O)[C@H](C)NC(=O)[C@H](CCC(N)=O)NC(=O)[C@H](CCC(=O)O)NC(=O)[C@H](CCC(=O)O)NC(=O)[C@H](CC(C)C)NC(=O)[C@H](Cc1ccc(O)cc1)NC(=O)[C@H](CO)NC(=O)[C@H](CO)NC(=O)[C@@H](NC(=O)[C@@H](N)CC(=O)O)C(C)C)C(C)C)[C@@H](C)CC)C(C)C)C(N)=O)C(=O)O)C(=O)O [SEQ ID NO: 57] (H-DVSSYLEEQAVREFIAWLVKGGPSSGAPPPSK([γGlu-AEEA-AEEA-γGlu-Palmitoyl])-NH2; N-terminus assumed)	8.05	> 25000		
CCCCCCCCCCCCCCCC(=O)NCCCC[C@H](NC(=O)[C@H](CO)NC(=O)[C@@H]1CCCN1C(=O)[C@@H]1CCCN1C(=O)[C@@H]1CCCN1C(=O)[C@H](C)NC(=O)CNC(=O)[C@H](CO)NC(=O)[C@H](CO)NC(=O)[C@@H]1CCCN1C(=O)CNC(=O)CNC(=O)[C@H](CCCCN)NC(=O)[C@@H](NC(=O)[C@H](CC(C)C)NC(=O)[C@H](Cc1c[nH]c2ccccc12)NC(=O)C(C)(C)NC(=O)[C@@H](NC(=O)[C@H](Cc1ccccc1)NC(=O)[C@H](CCC(=O)O)NC(=O)[C@H](CCCNC(=N)N)NC(=O)[C@@H](NC(=O)[C@H](C)NC(=O)[C@H](CCC(N)=O)NC(=O)[C@H](CCC(=O)O)NC(=O)[C@H](CCC(=O)O)NC(=O)[C@H](CC(C)C)NC(=O)[C@H](Cc1ccc(O)cc1)NC(=O)[C@H](CO)NC(=O)[C@H](CO)NC(=O)[C@@H](NC(=O)[C@@H](N)CC(=O)O)C(C)C)C(C)C)[C@@H](C)CC)C(C)C)C(N)=O [SEQ ID NO: 83] (H-DVSSYLEEQAVREFI[Aib]WLVKGGPSSGAPPPSK(Palmitoyl)-NH2; N-terminus assumed)			300 (≈ 82.1 µM)	
CCCCCCCCCCCCCCCC(=O)NCCOCCOCC(=O)NCCOCCOCC(=O)N[C@@H](CCC(=O)N[C@@H](CCC(=O)NCCCC[C@H](NC(=O)[C@H](CO)NC(=O)[C@@H]1CCCN1C(=O)[C@@H]1CCCN1C(=O)[C@@H]1CCCN1C(=O)[C@H](C)NC(=O)CNC(=O)[C@H](CO)NC(=O)[C@H](CO)NC(=O)[C@@H]1CCCN1C(=O)CNC(=O)CNC(=O)[C@H](CCCCN)NC(=O)[C@@H](NC(=O)[C@H](CC(C)C)NC(=O)[C@H](Cc1c[nH]c2ccccc12)NC(=O)[C@H](C)NC(=O)[C@@H](NC(=O)[C@H](Cc1ccccc1)NC(=O)[C@H](CCC(=O)O)NC(=O)[C@H](CCCNC(=N)N)NC(=O)[C@@H](NC(=O)[C@H](C)NC(=O)[C@H](CCC(N)=O)NC(=O)[C@H](CCC(=O)O)NC(=O)[C@H](CCC(=O)O)NC(=O)[C@H](CC(C)C)NC(=O)[C@H](Cc1ccc(O)cc1)NC(=O)[C@H](CO)NC(=O)[C@H](CO)NC(=O)[C@@H](NC(=O)[C@@H](N)CC(=O)O)C(C)C)C(C)C)[C@@H](C)CC)C(C)C)C(N)=O)C(=O)O)C(=O)O [SEQ ID NO: 61] (H-DVSSYLEEQAVREFIAWLVKGGPSSGAPPPSK([γGlu-γGlu-AEEA-AEEA-Palmitoyl])-NH2; N-terminus assumed)	8.22	> 25000		
CCCCCCCCCCCCCCCC(=O)NCCCC[C@H](NC(=O)[C@H](CO)NC(=O)[C@@H]1CCCN1C(=O)[C@@H]1CCCN1C(=O)[C@@H]1CCCN1C(=O)[C@H](C)NC(=O)CNC(=O)[C@H](CO)NC(=O)[C@H](CO)NC(=O)[C@@H]1CCCN1C(=O)CNC(=O)CNC(=O)C(C)(C)NC(=O)[C@H](CCCCN)NC(=O)[C@H](CC(C)C)NC(=O)[C@H](Cc1c[nH]c2ccccc12)NC(=O)[C@H](C)NC(=O)[C@@H](NC(=O)[C@H](Cc1ccccc1)NC(=O)[C@H](CCC(=O)O)NC(=O)[C@H](CCCNC(=N)N)NC(=O)[C@@H](NC(=O)[C@H](C)NC(=O)[C@H](CCC(N)=O)NC(=O)[C@H](CCC(=O)O)NC(=O)[C@H](CCC(=O)O)NC(=O)[C@H](CC(C)C)NC(=O)[C@H](Cc1ccc(O)cc1)NC(=O)[C@H](CO)NC(=O)[C@H](CO)NC(=O)[C@@H](NC(=O)[C@@H](N)CC(=O)O)C(C)C)C(C)C)[C@@H](C)CC)C(N)=O [SEQ ID NO: 43]			200 (≈ 55.2 µM)	
